From patent US4060652A (priority 1976, dated 1977)
“Also recorded” adds a separate entry of the source.

Columns and labels:
[1] = tested on: nervomuscular conduction, anterior tibial muscle; assay: Neostigmin antagonism of nervomuscular block in cats; assay type: in vivo
Procedure: (§1) Cats were narcotized (with chloralose, 50 mg per kg body weight, and urethane, 500 mg/kg, intraperitoneally) or decerebrated at the quadrigeminal bodies level. The lungs were ventilated artificially whenever necessary. Contractions of the anterior tibial muscle were recorded in isotonic concitions in response to electric stimulation of the peripheral part of n. peroneus with supramaximum pulses of 0.1 msec at a frequency of 0.1-100 Hz.
For example, even with a 5-fold dose of tercuronium, muscle contractility was restored already in 2 to 5 minutes following a single injection of neostigmin in a dose of 0.1 mg/kg, and in 15-20 minutes the recovery of the contactile function was complete.
In the case of pancuronium and α-tubocurarin, the restoration within these short periods of time could only be attained with 2-3 fold doses of these muscle relaxants. If the dose of pancuronium was increased 4 to 5 times, weak contractions of the muscle were observed not sooner than in 9 to 10 minutes and the contraction was, restored completely only 30 minutes after the injection of neostigmin (six experiments). The restoration of muscle contractility is delayed even longer in the case of α-tubocurarin.

[2] = Lethality by paralysis of respiratory muscles in rabbits; conditions: rabbit, in vivo
Source text: In another series of experiments, we determined the intravenous dose of the muscle relaxants that caused death of 50% of the animals due to paralysis of the respiratory muscles -- lethal dose 50% (LD50).

[3] = tested on: ischio-gastrocnemius conduction; assay: Block of ischio-gastrocnemius conduction in narcotized rabbits; assay type: in vivo
Procedure: In experiments on narcotized rabbits (chloralose, 50 mg/kg, and urethane, 500 mg/kg, given intravenously) the intravenous dose of Tercuronium that produced complete block of the ischio-gastrocnemius conduction was 0.025 ± 0.005 mcM/kg (five experiments).

[4] = tested on: straight muscles of the frog abdomen; assay: Isolated straight muscle of frog abdomen, antagonism of acetylcholine; set-up: species or system frog (Rana tempraria)
Source text: In experiments on isolated straight muscles of the frog abdomen (Rana tempraria) the concentration of Tercuronium, that weakened the action acetylcholine, was 2.0 ± 0.04 × × 10^-7 m/l.

[5] = Effect on arterial pressure in cats and rabbits; assay type: in vivo; conditions: rabbit, in vivo, iv, artificial ventilation
Procedure: (§2) Experiments were carried out on narcotized cats and rabbits (50 mg/kg of chloralose and 500 mg/kg urethane, intraperitoneally) and also on cats decerebrated at the quadrigeminal level. The blood pressure in the carotid artery was recorded with a mercury pressure gauge. The preparations were injected intravenously.
(§3) When Tercuronium was given in a quantity ten times exceeding the myoparalytic dose (0.8 mcM/kg) an insignificant and transient reduction (10 to 20 mm Hg) of the blood pressure was observed. The animals (7 cats and 5 rabbits) tolerated injections of very large doses of Tercuronium, viz., 10-20 mcM/kg, which is 200 times higher than the myoparalytic dose. […] In all experiments, in 1 to 2 hours, the arterial pressure restored completely or was close to the initial level.

arterial pressure = assay: Effect on arterial pressure in cats and rabbits; assay type: in vivo
Procedure: as §2, §3

M-cholinoreceptors = assay: Depression after intravenous acetylcholine in cats; assay type: in vivo; conditions: 0.1 to 1.0 mcM/kg; acetylcholine 3 mg/kg; three cats
Procedure: Experiments were carried out on narcotized cats (chloralose and urethane, intraperitoneally).

rabbits = assay: Chronic toxicity in rabbits; assay type: in vivo
Procedure: Tercuronium was given intravenously to four rabbits, once a day in the course of twelve days, in a dose that induced the head-drop symptom, i.e. 0.02 to 0.024 mcM/kg. Physiological solution was injected instead of Tercuronium to two other rabbits (controls). The animals were weighed daily, their rectal temperature taken, and behaviour observed. Clinical analysis of urine and blood was performed three times. At the end of the experiment, the rabbits were killed (phlebotomy). The liver, kidneys, heart, lungs, adrenal glands, spleen, as well as marginal ear vein, into which Tercuronium had been injected, were histologically studied.

patients = assay: Surgical operations, second series (intubation and maintenance); assay type: in vivo, patients (human)
Procedure: We tried Tercuronium as a muscle relaxant in surgical operations on the abdominal and thoracic organs in 150 patients. The operations were carried out in conditions of intubation narcosis and artificial lung ventilation. Ether, fluorothane, nitrous oxide and barbiturates were used as anesthetics.
In the second series of observations (30 operations), Tercuronium was used for both maintaining muscle relaxation and intubation of the trachea. For this purpose, Tercuronium was used intravenously in a dose of 0.25 to 0.3 mg/kg. […] The relaxation continued for about an hour. For a longer relaxation of muscles, a repeated injection of Tercuronium in a dose of 0.05 to 0.08 mg/kg was required.

[6] = Solubility, stability and pH; assay type: physicochemical; conditions: for stability on exposure to air: solid
Procedure: The active principle of Tercuronium, viz., p,p"-bis-triethylammonio-n-terphenyl dibenzenesulphonate having the structure [drawing 1] is a new compound that has not been described in literature. […] A 0.0012 percent solution of the active principle in a 0.01 N solution of hydrochloric acid has a specific absorption spectrum in the U-V region, with a maximum at 285 ± 2 nm and a minimum at 237 ± 1 nm.
Distilled water should contain a stabilizing agent, namely 3 ml of a 0.1 N solution of HCl per liter of water. The solution is stirred, filtered, and filled into 1-ml ampoules made of neutral glass. The ampoules are sterilized with steam at a temperature of 100° C for thirty minutes. The pH of the solution after sterilization is 3.7 (determined potentiometrically).

[7] = tested on: postsynaptic membrane of skeletal muscle; assay: Site of action: close intra-arterial acetylcholine and direct stimulation; assay type: in vivo; conditions: cats
Procedure: as §1
The blocking effect of Tercuronium is due to its action on the postsynaptic membrane of skeletal muscle.

[8] = 0.02 to 0.024 mcM/kg daily, twelve days

CC[N+](CC)(CC)c1ccc(-c2ccc(-c3ccc([N+](CC)(CC)CC)cc3)cc2)cc1 [Tercuronium, p,p"-bis-triethylammonio-n-terphenyl dibenzenesulphonate]
time to complete recovery of contractile function after neostigmin ([1]; 5-fold dose, neostigmin 0.1 mg/kg): 15 to 20 min | strength of neostigmin antagonism compared with other relaxants ([1]; cats): stronger that toward α-tubocurarin or pancuronium; also recorded: stronger with Tercuronium than with pancuronium or α-tubocurarin | number of myoparalytic doses whose blocking effect is completely removed by neostigmin ([1]; neostigmin 0.1 mg/kg intravenous, within five minutes): five | restoration from block by neostigmin ([1]; neostigmin 0.05 to 0.1 mg/kg intravenous): fully and immediately restored | LD50 ([2]; intravenous): 0.03 µmol/kg | selectivity ratio ([2]; read-out: LD50 to HDD ratio): 1.4 | ED100 ([3]; Oryctolagus cuniculus, narcotized rabbits, intravenous, five experiments, read-out: dose producing complete block of ischio-gastrocnemius conduction): 0.025 ± 0.005 µmol/kg | restoration of muscle contraction by neostigmin ([3]; neostigmin 0.1 mg/kg during complete block): always resulted in immediate and full restoration of the muscle contraction | contractions produced in the muscle [4]: did not produce contractions in the muscle | selectivity ratio ([5]; 10-20 mcM/kg, read-out: tolerated dose as multiple of myoparalytic dose): 200 | MTD ([5]; cats and rabbits, read-out: tolerated dose): 10 to 20 µmol/kg | blood pressure at very large doses (arterial pressure; 10-20 mcM/kg): quickly and sharply dropped and then slowly normalized | arterial pressure on doses that inhibit respiration (arterial pressure; active ventilation of the lungs): asphyxial rise in the arterial pressure | effect on arterial pressure of myoparalytic (complete block) dose (arterial pressure; artificial ventilation): the arterial pressure was not affected | reduction of blood pressure (arterial pressure; ten times the myoparalytic dose (0.8 mcM/kg)): 10-20 mm Hg | effect on arterial pressure, comparison (arterial pressure; versus the other two muscle relaxants): mildest effect on the arterial pressure | depression after intravenous acetylcholine (M-cholinoreceptors): did not produce depression | behaviour and rectal temperature (rabbits; [8]): no appreciable changes | blood and urine analysis (rabbits; [8]): did not find any pathological inclusions or changes | histological examination of organs (rabbits; [8]): Nor did we discover any pathological changes | sensitivity of animals in the course of the experiment (rabbits; 0.02 to 0.024 mcM/kg intravenous daily, twelve days): did not change in the course of the experiment | irritating action at site of administration (rabbits; ear vein): no signs of irritating action | cardiovascular disorders or other complications (patients; 0.25 to 0.3 mg/kg): not accompanied by cardiovacular disorders or any other complications | duration of relaxation (patients; 0.25 to 0.3 mg/kg intravenous): about an hour | intubation conditions (patients; 0.25 to 0.3 mg/kg intravenous): unobstructed intubation | postoperative complications (patients; postoperative period): no cases of muscle atomia, respiratory insufficiency, or recurarization | efficiency of proserpin as deblocking agent (patients; proserpin): complete | solubility in water [6]: readily soluble in water | stability on exposure to air [6]: slightly green when exposed to air | stability on exposure to air ([6]; listed as p,p"-bis-triethylammonio-p-terphenyl): becomes slightly green on exposture to air | stability of aqueous solution ([6]; stabilizer 3 ml of 0.1 N HCl per liter of water): stable in the presence of a stabilizer | site of blocking action [7]: contraction of muscles induced by acetylcholine injected by the close intra-arterial method, was inhibited simultaneously with the block of the nervomuscular condution; also recorded: it contracted in response to direct stimuli
